{
  "source": "patent US4530838A",
  "about": "“Synthetic calcitonin-gene-related peptides for lowering blood pressure or gastric acid secretion in mammals” (The Salk Institute for Biological Studies, priority 1983, dated 1985)",
  "key": {"[1]": {"experiment": "Blood pressure (MAP) lowering, general procedure of Example I, species not stated", "assay_type": "in vivo", "details": "species and dose not stated", "experimental": "(§1) The synthetic CGRP was examined for its effect on mean arterial blood pressure(MAP) gastric acid secretion and plasma catecholamine levels. The effects of CGRP on MAP, gastric secretion and plasma catecholamine levels were determined in unanesthetized rats and Beagle dogs. MAP was measured via direct arterial monitoring and gastric acids were collected from chronic gastric-abdominal wall cannula. […] Mean arterial blood pressure in rats fell from 106 to 57±2 mm Hg within about 1 minute following an injection of 6.5 nmoles CGRP and then slowly returned to control values during a period of more than one hour. The iv administration of an injection equal to 650 pmoles of CGRP lowered MAP to 73±3 mm Hg in about one minute, returning to control value in about 1 hour. IV and ICV administration of CGRP (10 pmoles) to rats and dogs lowers pentagastrin-induced acid secretion by more than 70% for several hours.\nThe peptide [Lys^35 ]-CGRP having the formula: [drawing 7] is synthesized."}, "Beagle dogs [2]": {"system": "Beagle dogs", "experiment": "Pentagastrin-induced gastric acid secretion, chronic gastric-abdominal wall cannula, dogs", "assay_type": "in vivo", "details": "IV and ICV, 10 pmoles, for several hours", "experimental": "as §1"}, "rats [3]": {"system": "rats", "experiment": "Mean arterial blood pressure (MAP) by direct arterial monitoring in unanesthetized rats", "assay_type": "in vivo", "experimental": "as §1"}, "rats [4]": {"system": "rats", "experiment": "Pentagastrin-induced gastric acid secretion, chronic gastric-abdominal wall cannula, rats", "assay_type": "in vivo", "details": "IV and ICV, 10 pmoles, for several hours", "experimental": "as §1"}, "Beagle dogs [5]": {"system": "Beagle dogs", "experiment": "Mean arterial blood pressure (MAP) by direct arterial monitoring in unanesthetized Beagle dogs", "assay_type": "in vivo", "experimental": "as §1"}, "[6]": {"experiment": "Plasma catecholamine (norepinephrine) levels in unanesthetized animals", "assay_type": "in vivo, rats and Beagle dogs", "details": "IV and ICV, 6.5 nmoles", "experimental": "as §1"}, "[7]": {"details": "iv, degree and duration dose-related"}},
  "data": [
    {"compound": "CC(C)C[C@H](NC(=O)CNC(=O)[C@H](C)NC(=O)[C@H](CC(C)C)NC(=O)[C@H](CCCNC(=N)N)NC(=O)[C@H](Cc1c[nH]cn1)NC(=O)[C@@H](NC(=O)[C@@H](NC(=O)[C@@H]1CSSC[C@H](NC(=O)[C@@H](N)CO)C(=O)N[C@@H](CC(N)=O)C(=O)N[C@@H]([C@@H](C)O)C(=O)N[C@@H](C)C(=O)N[C@@H]([C@@H](C)O)C(=O)N1)C(C)C)[C@@H](C)O)C(=O)N[C@@H](CC(C)C)C(=O)N[C@@H](CO)C(=O)N[C@@H](CCCNC(=N)N)C(=O)N[C@@H](CO)C(=O)NCC(=O)NCC(=O)N[C@H](C(=O)N[C@H](C(=O)N[C@@H](CCCCN)C(=O)N[C@@H](CC(=O)O)C(=O)N[C@@H](CC(N)=O)C(=O)N[C@@H](Cc1ccccc1)C(=O)N[C@H](C(=O)N1CCC[C@H]1C(=O)N[C@H](C(=O)N[C@@H](CC(N)=O)C(=O)N[C@H](C(=O)NCC(=O)N[C@@H](CO)C(=O)N[C@@H](CCC(=O)O)C(=O)N[C@@H](C)C(=O)N[C@@H](Cc1ccccc1)C(N)=O)C(C)C)[C@@H](C)O)C(C)C)C(C)C)C(C)C", "note": "[CGRP]", "values": [
      {"measurement": "Effect on blood pressure / MAP", "setting": "[1]", "result": "substantially lower blood pressure for an extended time period"},
      {"measurement": "Lowering of pentagastrin-induced acid secretion", "setting": "Beagle dogs [2]", "result": "more than 70%"},
      {"measurement": "Rapid decrease in MAP evoked, intercerebroventricular (icv) administration", "setting": "rats [3]; icv", "result": "not"},
      {"measurement": "Period of return of MAP to control values", "setting": "rats [3]; injection of 6.5 nmoles", "result": "more than one"},
      {"measurement": "Mean arterial blood pressure after injection", "setting": "rats [3]; injection of 6.5 nmoles, fell from 106 within about 1 minute", "result": "57±2", "unit": "mm Hg"},
      {"measurement": "Time of return of MAP to control value", "setting": "rats [3]; iv injection of 650 pmoles", "result": "about 1 hour"},
      {"measurement": "Mean arterial blood pressure after injection", "setting": "rats [3]; iv injection of 650 pmoles, in about one minute", "result": "73±3", "unit": "mm Hg"},
      {"measurement": "Effect on MAP, intravenous (iv) administration", "setting": "rats [3]; [7]", "result": "rapid decrease in MAP"},
      {"measurement": "Lowering of pentagastrin-induced acid secretion", "setting": "rats [4]", "result": "more than 70%"},
      {"measurement": "Rapid decrease in MAP evoked, intercerebroventricular (icv) administration", "setting": "Beagle dogs [5]; icv", "result": "not"},
      {"measurement": "Effect on MAP, intravenous (iv) administration", "setting": "Beagle dogs [5]; [7]", "result": "rapid decrease in MAP"},
      {"measurement": "Norepinephrine in plasma", "setting": "[6]", "result": "significant elevation"}
    ]},
    {"compound": "CC(C)C[C@H](NC(=O)CNC(=O)[C@H](C)NC(=O)[C@H](CC(C)C)NC(=O)[C@H](CCCNC(=N)N)NC(=O)[C@H](Cc1c[nH]cn1)NC(=O)[C@@H](NC(=O)[C@@H](NC(=O)[C@@H]1CSSC[C@H](NC(=O)[C@@H](N)CO)C(=O)N[C@@H](CC(N)=O)C(=O)N[C@@H]([C@@H](C)O)C(=O)N[C@@H](C)C(=O)N[C@@H]([C@@H](C)O)C(=O)N1)C(C)C)[C@@H](C)O)C(=O)N[C@@H](CC(C)C)C(=O)N[C@@H](CO)C(=O)N[C@@H](CCCNC(=N)N)C(=O)N[C@@H](CO)C(=O)NCC(=O)NCC(=O)N[C@H](C(=O)N[C@H](C(=O)N[C@@H](CCCCN)C(=O)N[C@@H](CC(=O)O)C(=O)N[C@@H](CC(N)=O)C(=O)N[C@@H](Cc1ccccc1)C(=O)N[C@H](C(=O)N1CCC[C@H]1C(=O)N[C@H](C(=O)N[C@@H](CC(N)=O)C(=O)N[C@H](C(=O)NCC(=O)N[C@@H](CO)C(=O)N[C@@H](CCCCN)C(=O)N[C@@H](C)C(=O)N[C@@H](Cc1ccccc1)C(N)=O)C(C)C)[C@@H](C)O)C(C)C)C(C)C)C(C)C", "note": "[[Lys^35]-CGRP]", "values": [
      {"measurement": "Effect on blood pressure / MAP", "setting": "[1]", "result": "very significant lowering of MAP"}
    ]}
  ]
}
